Laboratory results as given in the supplement of paper PMC10307832.

What was measured:
Assay in all cases: relative viability (nuclei count vs DMSO), 5 days (fraction); higher = more cells survive
[1] = compound: C1CN(CCN1)C2=CC=C(C=C2)C3=CN4C(=C(C=N4)C5=CC=NC6=CC=CC=C56)N=C3 [DM3189] + CCNC(=O)c1noc(-c2cc(C(C)C)c(O)cc2O)c1-c1ccc(CN2CCOCC2)cc1 [Luminespib] (partner 0.01 µM)
How it was run: (§1)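 Relative viability was taken as the ratio of nuclei in treated wells to nuclei in vehicle wells. Lung cancer cell lines in 1536-well plates received compounds by pin tool one day after seeding, either one drug alone or a fixed anchor-drug dose plus five library-drug doses (not always all listed) in √10 steps. Nuclei were counted on 4× images after 5 days of treatment, and values are medians of duplicate plates.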

[2] = compound: C1CN(CCN1)C2=CC=C(C=C2)C3=CN4C(=C(C=N4)C5=CC=NC6=CC=CC=C56)N=C3 [DM3189] + C[C@]1(O)C[C@@H](c2nc(-c3ccc4ccc(-c5ccccc5)nc4c3)c3c(N)nccn32)C1 [Linsitinib] (partner 1 µM)
How it was run: as §1

[3] = compound: C1CN(CCN1)C2=CC=C(C=C2)C3=CN4C(=C(C=N4)C5=CC=NC6=CC=CC=C56)N=C3 [DM3189] + CS(=O)(=O)N1CCN(Cc2cc3nc(-c4cccc5[nH]ncc45)nc(N4CCOCC4)c3s2)CC1 [Pictilisib] (partner 1 µM)
How it was run: as §1

[4] = compound: C1CN(CCN1)C2=CC=C(C=C2)C3=CN4C(=C(C=N4)C5=CC=NC6=CC=CC=C56)N=C3 [DM3189] + C[C@@H](Oc1cc(-c2cnn(C3CCNCC3)c2)cnc1N)c1c(Cl)ccc(F)c1Cl [Crizotinib] (partner 1 µM)
How it was run: as §1

[5] = compound: C1CN(CCN1)C2=CC=C(C=C2)C3=CN4C(=C(C=N4)C5=CC=NC6=CC=CC=C56)N=C3 [DM3189] + N=C(N)NC(=N)NCCc1ccccc1 [Phenformin] (partner 250 µM)
How it was run: as §1

PC-14
relative viability ([1]; first compound 0.08 µM): 0.161
relative viability ([1]; first compound 0.253 µM): 0.154
relative viability ([1]; first compound 0.8 µM): 0.152
relative viability ([1]; first compound 2.53 µM): 0.154
relative viability ([2]; first compound 0.08 µM): 1.03
relative viability ([2]; first compound 0.253 µM): 0.953
relative viability ([2]; first compound 0.8 µM): 0.903
relative viability ([2]; first compound 2.53 µM): 0.879
relative viability ([3]; first compound 0.08 µM): 0.782
relative viability ([3]; first compound 0.253 µM): 0.739
relative viability ([3]; first compound 0.8 µM): 0.673
relative viability ([3]; first compound 2.53 µM): 0.538
relative viability ([4]; first compound 0.08 µM): 0.807
relative viability ([4]; first compound 0.253 µM): 0.914
relative viability ([4]; first compound 0.8 µM): 0.791
relative viability ([4]; first compound 2.53 µM): 0.862
relative viability ([5]; first compound 0.08 µM): 0.817
relative viability ([5]; first compound 0.253 µM): 0.527
relative viability ([5]; first compound 0.8 µM): 0.435
relative viability ([5]; first compound 2.53 µM): 0.487

NCI-H322M
relative viability ([1]; first compound 0.08 µM): 0.958
relative viability ([1]; first compound 0.253 µM): 0.818
relative viability ([1]; first compound 0.8 µM): 0.739
relative viability ([1]; first compound 2.53 µM): 0.666
relative viability ([2]; first compound 0.08 µM): 0.891
relative viability ([2]; first compound 0.253 µM): 0.863
relative viability ([2]; first compound 0.8 µM): 0.921
relative viability ([2]; first compound 2.53 µM): 0.977
relative viability ([3]; first compound 0.08 µM): 0.565
relative viability ([3]; first compound 0.253 µM): 0.526
relative viability ([3]; first compound 0.8 µM): 0.462
relative viability ([3]; first compound 2.53 µM): 0.447
relative viability ([4]; first compound 0.08 µM): 1.06
relative viability ([4]; first compound 0.253 µM): 0.848
relative viability ([4]; first compound 0.8 µM): 0.872
relative viability ([4]; first compound 2.53 µM): 0.924
relative viability ([5]; first compound 0.08 µM): 0.866
relative viability ([5]; first compound 0.253 µM): 0.782
relative viability ([5]; first compound 0.8 µM): 0.651
relative viability ([5]; first compound 2.53 µM): 0.652

SK-MES-1
relative viability ([1]; first compound 0.08 µM): 0.848
relative viability ([1]; first compound 0.253 µM): 0.82
relative viability ([1]; first compound 0.8 µM): 0.611
relative viability ([1]; first compound 2.53 µM): 0.412
relative viability ([2]; first compound 0.08 µM): 1.11
relative viability ([2]; first compound 0.253 µM): 0.981
relative viability ([2]; first compound 0.8 µM): 0.97
relative viability ([2]; first compound 2.53 µM): 0.944
relative viability ([3]; first compound 0.08 µM): 0.305
relative viability ([3]; first compound 0.253 µM): 0.3
relative viability ([3]; first compound 0.8 µM): 0.289
relative viability ([3]; first compound 2.53 µM): 0.319
relative viability ([4]; first compound 0.08 µM): 1.05
relative viability ([4]; first compound 0.253 µM): 0.885
relative viability ([4]; first compound 0.8 µM): 0.69
relative viability ([4]; first compound 2.53 µM): 0.918
relative viability ([5]; first compound 0.08 µM): 0.679
relative viability ([5]; first compound 0.253 µM): 0.62
relative viability ([5]; first compound 0.8 µM): 0.587
relative viability ([5]; first compound 2.53 µM): 0.662

NCI-H1944
relative viability ([1]; first compound 0.08 µM): 0.813
relative viability ([1]; first compound 0.253 µM): 0.673
relative viability ([1]; first compound 2.53 µM): 0.684
relative viability ([2]; first compound 0.08 µM): 1.26
relative viability ([2]; first compound 0.253 µM): 1.19
relative viability ([2]; first compound 2.53 µM): 1.21
relative viability ([3]; first compound 0.08 µM): 0.405
relative viability ([3]; first compound 0.253 µM): 0.336
relative viability ([3]; first compound 2.53 µM): 0.389
relative viability ([4]; first compound 0.08 µM): 1.25
relative viability ([4]; first compound 0.253 µM): 1
relative viability ([4]; first compound 2.53 µM): 1.22
relative viability ([5]; first compound 0.08 µM): 0.237
relative viability ([5]; first compound 0.253 µM): 0.192
relative viability ([5]; first compound 2.53 µM): 0.192

LK-2
relative viability ([1]; first compound 0.08 µM): 0.188
relative viability ([1]; first compound 0.253 µM): 0.214
relative viability ([1]; first compound 0.8 µM): 0.145
relative viability ([1]; first compound 2.53 µM): 0.191
relative viability ([2]; first compound 0.08 µM): 0.406
relative viability ([2]; first compound 0.253 µM): 0.321
relative viability ([2]; first compound 0.8 µM): 0.447
relative viability ([2]; first compound 2.53 µM): 0.189
relative viability ([3]; first compound 0.08 µM): 0.378
relative viability ([3]; first compound 0.253 µM): 0.278
relative viability ([3]; first compound 0.8 µM): 0.262
relative viability ([3]; first compound 2.53 µM): 0.306
relative viability ([4]; first compound 0.08 µM): 0.234
relative viability ([4]; first compound 0.253 µM): 0.241
relative viability ([4]; first compound 0.8 µM): 0.22
relative viability ([4]; first compound 2.53 µM): 0.214
relative viability ([5]; first compound 0.08 µM): 0.29
relative viability ([5]; first compound 0.253 µM): 0.26
relative viability ([5]; first compound 0.8 µM): 0.228
relative viability ([5]; first compound 2.53 µM): 0.237

RERF-LC-KJ
relative viability ([1]; first compound 0.08 µM): 1.37
relative viability ([1]; first compound 0.253 µM): 1.3
relative viability ([1]; first compound 0.8 µM): 1.46
relative viability ([1]; first compound 2.53 µM): 1.19
relative viability ([2]; first compound 0.08 µM): 0.932
relative viability ([2]; first compound 0.253 µM): 0.879
relative viability ([2]; first compound 0.8 µM): 0.861
relative viability ([2]; first compound 2.53 µM): 0.978
relative viability ([3]; first compound 0.08 µM): 0.585
relative viability ([3]; first compound 0.253 µM): 0.694
relative viability ([3]; first compound 0.8 µM): 0.602
relative viability ([3]; first compound 2.53 µM): 0.562
relative viability ([4]; first compound 0.08 µM): 0.887
relative viability ([4]; first compound 0.253 µM): 0.812
relative viability ([4]; first compound 0.8 µM): 0.863
relative viability ([4]; first compound 2.53 µM): 0.885
relative viability ([5]; first compound 0.08 µM): 0.451
relative viability ([5]; first compound 0.253 µM): 0.4
relative viability ([5]; first compound 0.8 µM): 0.407
relative viability ([5]; first compound 2.53 µM): 0.426

COR-L23
relative viability ([1]; first compound 0.08 µM): 1.12
relative viability ([1]; first compound 0.253 µM): 0.658
relative viability ([1]; first compound 0.8 µM): 0.562
relative viability ([1]; first compound 2.53 µM): 0.521
relative viability ([2]; first compound 0.08 µM): 0.94
relative viability ([2]; first compound 0.253 µM): 1.01
relative viability ([2]; first compound 0.8 µM): 0.559
relative viability ([2]; first compound 2.53 µM): 0.742
relative viability ([3]; first compound 0.08 µM): 0.71
relative viability ([3]; first compound 0.253 µM): 0.668
relative viability ([3]; first compound 0.8 µM): 0.485
relative viability ([3]; first compound 2.53 µM): 0.627
relative viability ([4]; first compound 0.08 µM): 0.633
relative viability ([4]; first compound 0.253 µM): 0.455
relative viability ([4]; first compound 0.8 µM): 0.679
relative viability ([4]; first compound 2.53 µM): 0.583
relative viability ([5]; first compound 0.08 µM): 0.472
relative viability ([5]; first compound 0.253 µM): 0.439
relative viability ([5]; first compound 0.8 µM): 0.402
relative viability ([5]; first compound 2.53 µM): 0.408

NCI-H1355
relative viability ([1]; first compound 0.08 µM): 0.621
relative viability ([1]; first compound 0.253 µM): 0.674
relative viability ([1]; first compound 0.8 µM): 0.626
relative viability ([1]; first compound 2.53 µM): 0.602
relative viability ([2]; first compound 0.08 µM): 0.785
relative viability ([2]; first compound 0.253 µM): 0.793
relative viability ([2]; first compound 0.8 µM): 0.663
relative viability ([2]; first compound 2.53 µM): 0.738
relative viability ([3]; first compound 0.08 µM): 0.539
relative viability ([3]; first compound 0.253 µM): 0.399
relative viability ([3]; first compound 0.8 µM): 0.311
relative viability ([3]; first compound 2.53 µM): 0.362
relative viability ([4]; first compound 0.08 µM): 1.14
relative viability ([4]; first compound 0.253 µM): 1.12
relative viability ([4]; first compound 0.8 µM): 0.955
relative viability ([4]; first compound 2.53 µM): 0.971
relative viability ([5]; first compound 0.08 µM): 0.438
relative viability ([5]; first compound 0.253 µM): 0.43
relative viability ([5]; first compound 0.8 µM): 0.405
relative viability ([5]; first compound 2.53 µM): 0.394
